One experiment deals with T1, KRAS^G12C/C118A (Homo sapiens, UniProt P01116, C118A/G12C).
T1 construct: Recombinant His-tagged human KRAS^G12C/C118A (1-169); made in house; host or cells: Escherichia coli (KRAS, c-RAF); Trichoplusia ni (SOS1)
Nature of the experiment: SOS1-catalyzed coupled nucleotide exchange assay (Alpha). The experiment is classed as biochemical. The procedure: (§1) A cysteine-light mutant construct was used for co-crystallization studies based on the work of Ostrem et al^15.
(§2) The inhibition of the SOS1-catalyzed nucleotide exchange activity of KRAS^G12C/C118A or KRAS^C118A was measured using Alpha (Amplified Luminescent Proximity Homogeneous Assay) technology. […] For all subsequent steps, DTT was added to the reaction buffer at a final concentration of 1 mM. […] Finally, c-RAF RBD (50 nM final), Alpha glutathione donor beads (PerkinElmer; 20 μg/mL final), and AlphaLISA® nickel chelate acceptor beads (PerkinElmer; 20 μg/mL final), all diluted in DTT-reaction buffer, were added. The reaction mixture was incubated at RT for 5 min, and then the plates were read on an EnVision® Multilabel Reader using the AlphaScreen protocol. […] Signal intensity corresponded with the association of c-RAF RBD with GTP-bound KRAS^G12C/C118A or KRAS^C118A and was normalized to DMSO control.

The target in the next experiment is T2, KRAS^C118A (Homo sapiens, UniProt P01116, C118A).
T2 construct: His-tagged human KRAS^C118A (1-169); made in house; host or cells: Escherichia coli (KRAS, c-RAF); Trichoplusia ni (SOS1)
The experiment is described as above. In kind it is biochemical. To be noted: wildtype at position 12. The protocol:
as §1, §2

Experiment [1] has as its system ERK1/2 phosphorylation in CT-26 KRAS p.G12C tumors. Briefly: Tumor pharmacodynamic assay (p-ERK, MSD immunoassay). To be noted: MEKi 10 mg/kg single oral dose; 2 hours.
For experiment [2], the system named is immune cells in CT-26 KRAS p.G12C tumors. Briefly: Tumor immunophenotyping by flow cytometry. The experiment is classed as in vivo, mouse. The settings on record: after 4 days of treatment.
A further experiment deals with KRAS^G12C (Homo sapiens, UniProt P01116, G12C). Briefly: Cellular kinetics from time- and concentration-dependence of p-ERK inhibition. In kind it is cell-based. The settings on record: NCI-H358 cells. The procedure:
To provide an alternative estimate of the rate of GTP-hydrolysis by KRAS^G12C, a SHP2 inhibitor was employed to eliminate all upstream signaling to KRAS.
To determine the kinetic values of covalent inhibitor-KRAS^G12C adduct formation in cells, basal ERK1/2 phosphorylation levels were measured following treatment with various inhibitor concentrations at various incubation times exactly as described above, and % activity values were used for the kinetic calculations.

In another experiment the test system is MIA PaCa-2 (pancreas). Nature of the experiment: In vitro two-way combination matrix, growth inhibition, Loewe synergy score. In kind it is cell-based, human.
The next experiment relates to NCI-H358 tumors. Nature of the experiment: Tumor xenograft efficacy study, single agent and combinations. In kind it is in vivo, mouse. To be noted: AMG 510 10 or 30 mg/kg QD oral; carboplatin 50 or 100 mg/kg IP 1x/week.

This is an account of results in patent US12582657B2, “Combination therapy including a KRAS G12C inhibitor and one or more additional pharmaceutically active agents for the treatment of cancers” (Amgen Inc., priority 2018, dated 2026).

T1 sequence (P01116 1-169 isoform P01116-2 G12C/C118A): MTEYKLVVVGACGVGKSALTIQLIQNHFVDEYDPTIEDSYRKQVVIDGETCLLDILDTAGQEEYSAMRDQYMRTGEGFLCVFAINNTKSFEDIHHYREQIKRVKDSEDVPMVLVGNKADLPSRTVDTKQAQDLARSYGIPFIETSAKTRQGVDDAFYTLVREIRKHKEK
Chain of KRAS^G12C (P01116 1-188 isoform P01116-2 G12C): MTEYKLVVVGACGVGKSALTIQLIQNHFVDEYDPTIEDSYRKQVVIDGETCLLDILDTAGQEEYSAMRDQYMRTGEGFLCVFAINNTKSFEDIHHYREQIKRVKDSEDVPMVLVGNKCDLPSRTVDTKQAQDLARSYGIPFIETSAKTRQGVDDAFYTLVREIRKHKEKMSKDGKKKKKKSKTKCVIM
T2 sequence (P01116 1-169 isoform P01116-2 C118A): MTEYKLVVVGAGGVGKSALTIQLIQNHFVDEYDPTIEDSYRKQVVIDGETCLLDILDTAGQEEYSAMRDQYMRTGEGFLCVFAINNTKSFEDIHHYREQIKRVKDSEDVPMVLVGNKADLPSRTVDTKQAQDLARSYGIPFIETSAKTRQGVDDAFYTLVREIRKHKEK

Turning to `CCC(=O)N1CCN(c2nc(=O)n(-c3c(C)ccnc3C(C)C)c3nc(-c4c(O)cccc4F)c(F)cc23)[C@@H](C)C1` (atropisomer, axis not shown; (M)) [non-reactive analog of AMG 510, (M)-6-Fluoro-7-(2-fluoro-6-hydroxyphenyl)-1-(4-methyl-2-(2-propanyl)-3-pyridinyl)-4-((2S)-2-methyl-4-propanoyl-1-piperazinyl)pyrido[2,3-d]pyrimidin-2(1H)-one], the “inhibition of KRAS^G12C/C118A nucleotide exchange” value against KRAS^G12C/C118A is on record as “minimal activity”. Further, the “inhibition of KRAS^C118A nucleotide exchange” value against KRAS^C118A is listed as “minimal activity”.

Take `O=C(NOC[C@H](O)CO)c1ccc(F)c(F)c1Nc1ccc(I)cc1F` [MEKi, N-(((2R)-2,3-dihydroxypropyl)oxy)-3,4-difluoro-2-((2-fluoro-4-iodophenyl)amino)benzamide]: the “MAPK signaling in tumors” value in experiment [1] was “blocked MAPK signaling downstream of RAS”. Also, in experiment [2], the “PD-1 expression on CD8+ T cells” value is on record as “moderately increased”; the “T cell infiltration of tumors” value was “did not affect numbers of infiltrating CD8+ T cells”; the “infiltration of macrophages and dendritic cells” value was “not observed”.

In the case of `Cc1nc(N2CCC3(CC2)CO[C@@H](C)[C@H]3N)c(CO)nc1-c1cccc(Cl)c1Cl` [RMC-4550], the “cellular GTP hydrolysis rate from p-ERK inhibition by SHP2 inhibitor” value at KRAS^G12C stood at 0.00094 s⁻¹. Further, in the experiment with MIA PaCa-2 (pancreas), the “single agent activity” value is given as “lack of single agent activity”.

Consider `N.N.O=C([O-])C1(C(=O)[O-])CCC1.[Pt+2]` [carboplatin], for which the “tumor growth, carboplatin combination study” value in the experiment with NCI-H358 tumors is “significant tumor growth inhibition”.

As to `C#Cc1cccc(Nc2ncnc3cc(OCCOC)c(OCCOC)cc23)c1` [erlotinib], the “single agent activity” value in the experiment with MIA PaCa-2 (pancreas) was “lack of erlotinib activity”.
